# Results from US10709757B2, “Pharmaceutical composition for anti-angiogenesis containing cyclic pentadepsipeptide as an effective ingredient” (CHUNG-ANG UNIVERSITY INDUSTRY-ACADEMIC COOPERATION …, priority 2017, dated 2020).
# What was measured:
# [1] = tested on: human umbilical vein endothelial cells (HUVECs); test: MTT assay, VEGF-induced proliferation of HUVECs; assay type: cell-based; details: 24 hours
# Procedure: After being cultured to 80-90% confluence, human umbilical vein endothelial cells (HUVECs) were additionally cultured in an M199 medium supplemented with 1% FBS for 6 hours, and then treated with neo-N-methylsansalvamide (NMSSV) at various concentrations in the presence of VEGF (50 ng/ml) for 24 hours. Effects of neo-N-methylsansalvamide (NMSSV) on the viability and growth inhibition of the HUVEC cells were measured by a 3-(4,5-dimethylthiazol-2-yl)-2,5-diphenyltetrazolium bromide (MTT) assay method.
# In order to identify the effects of the neo-N-methylsansalvamide (NMSSV, Peak 2, hereinafter, referred to as P2) of the present invention on the proliferation in VEGF-induced HUVECs, it was confirmed that cells were proliferated by culturing the cells with P2 at various concentrations in the presence or absence of VEGF (50 ng/ml) by the method in Example 1-2 and performing an MTT assay 24 hours after the culture.
# ERK1/2 = test: Phosphorylation assay of ERK1/2 in VEGF-induced HUVECs (Western); assay type: cell-based, human; details: VEGF 50 ng/ml, FIG. 2
# Procedure: (§1) After being cultured to 80-90% confluence, human umbilical vein endothelial cells (HUVECs) were additionally cultured in an M199 medium supplemented with 1% FBS for 6 hours, and then treated with neo-N-methylsansalvamide (NMSSV) at various concentrations in the presence of VEGF (50 ng/ml) for 10 minutes. Effects of neo-N-methylsansalvamide (NMSSV) in the phosphorylation assay of ERK1/2, AKT, and eNOS of HUVEC cells were measured by a Western assay method using each antibody.
# (§2) In this case, the HUVECs were pre-cultured for 10 minutes prior to the VEGF stimulation and along with P2 for 40 minutes.
# AKT = test: Phosphorylation assay of AKT in VEGF-induced HUVECs (Western); assay type: cell-based, human; details: VEGF 50 ng/ml, FIG. 2
# Procedure: as §1, §2
# eNOS = test: Phosphorylation assay of eNOS in VEGF-induced HUVECs (Western); assay type: cell-based, human; details: VEGF 50 ng/ml, FIG. 2
# Procedure: as §1, §2
# HUVECs [2] = test: Colony tube formation assay; assay type: cell-based, human; details: Matrigel, VEGF 50 ng/ml, 24 hours, FIG. 3
# Procedure: After being cultured to 80-90% confluence in a plate covered with Matrigel (Collaborative Biomedical Products, Bedford, Mass.), HUVECs were additionally cultured in an M199 medium supplemented with 1% FBS for 6 hours, and then treated with neo-N-methylsansalvamide (NMSSV) at various concentrations in the presence of VEGF (50 ng/ml) for 24 hours. The tube formation was photographed by using a phase-contrast microscope.
# The formation of capillary-like tubular structures by endothelial cells is one of the most essential steps in the development of angiogenesis, and it was checked whether P2 inhibited the formation of capillary-like network structures in HUVECs in Matrigel.
# HUVECs [3] = test: Wound-healing migration assay; assay type: cell-based, human; details: VEGF 50 ng/ml, 24 hours, FIG. 4
# Procedure: When cells were grown to approximately 90%, the medium was suctioned, and then a line was created by steadily scratching the bottom of the plate with a yellow tip, and then the cells were washed with PBS and treated with neo-N-methylsansalvamide (NMSSV) at various concentrations in the presence of VEGF (50 ng/ml) for 24 hours. After 24 hours, the tendency of cells to migrate at each treatment concentration was photographed and observed by marking the position under a microscope at 40× magnification.
# (§3) Subsequently, the migration and invasion of endothelial cells is also a main step of angiogenesis leading to the formation of new blood vessels, so that effects of P2 on mobility and invasiveness of VEGF-induced HUVECs were checked by using a wound-healing migration assay and a Transwell invasion assay.
# HUVECs [4] = test: Transwell invasion assay; assay type: cell-based, human; details: VEGF 50 ng/ml, 24 hours, FIG. 5
# Procedure: An experiment was performed by using a modified Boyden chamber prepared with a polycarbonate nucleopore membrane (Corning, Corning, N.Y.). After trypsin-EDTA was added to the cells, the cells were collected, the cells were measured by using a hematocytometer, and then the concentration was set to 4×10^5 cells/ml, and the cells were respectively aliquoted. After 700 μl of the medium was added to the bottom well and an insert was placed thereon, 100 μl of cells prepared with neo-N-methylsansalvamide (NMSSV) at various concentrations were aliquoted into the insert in the presence of VEGF (50 ng/ml) and cultured in an incubator at 37° C. for 24 hours. […] After the cells, which succeeded in passing through the gelatin, were fixed with 4% paraformaldehyde, the cells were stained by using crystal violet, washed twice with PBS, and then placed on a glass plate. Thereafter, the cells were observed by using a microscope, and arbitrary five points were marked, photographed, and observed.
# as §3
# mouse aortic ring = test: Aortic ring assay (ex vivo VEGF-induced vascularization); details: in the presence of VEGF, FIG. 6
# Procedure: 150 μl of Matrigel was put into a 48-well plate, uniformly spread by shaking the 48-well plate, and hardened in an incubator at 37° C. for 30 minutes. After a C57BL/6 mouse was over-anesthetized with ether and sacrificed, the aorta was extracted and washed with PBS to remove the fat, the resulting aorta was transferred to human endothelial-SFM and excised by using micro scissors. The excised aorta was placed on the hardened Matrigel, 50 μl of Matrigel was dropped on the aorta tissue, and then hardened in an incubator at 37° C. for 30 minutes. 200 μl of a medium including neo-N-methylsansalvamide (NMSSV) and VEGF was each added, and cells were observed while being cultured in a CO2 incubator at 37° C. After treatment with the test material, the cells were cultured for 14 days. On Day 7 and Day 14 of the culture, the cells were observed and photographed by an invert microscope (OLYMPUS, CKX41), and the lengths of the blood vessels produced were measured by photographing the aorta with the Toupview program (OLYMPUS, ver.3.5).
# Based on the results in the Examples, the effects of P2 on ex vivo VEGF-induced neovascularization were identified, so that an aortic ring assay was performed in order to check the effects of P2 on the formation of capillary vessels in the presence of VEGF.
# C57BL/6 mice [5] = test: Matrigel plug assay (in vivo VEGF-induced angiogenesis); design: species or system mouse; details: seven days, FIG. 7
# Procedure: A test material administration group and a VEGF (50 ng/ml) administration group were established, and each group consisted of six 8-week-old C57BL/6 mice. 0.5 ml of Matrigel, 50 U/ml of heparin, and a test material were formulated for use at each concentration right before the administration, and formulated such that VEGF was also included in the test material administration group. Seven days after the administration, a Matrigel plug was extracted, a photograph was taken, the amount of hemoglobin was measured by using the Drabkin method (Drabkin reagent kit 525, Sigma-Aldrich, Louis, Mo.), and purification was performed.
# 0.6 ml of the test material solution was administered to the dorsal hypodermis of each test animal by using a 1-ml syringe.
# Thus, additionally through an in vivo Matrigel plug assay, the effects of P2 on in vivo angiogenesis were checked.
# C57BL/6 mice [6] = test: Laser-induced choroidal neovascularization (CNV) mouse model, angiography; assay type: in vivo; details: intravitreal injection once, 14 days after laser, vs control, FIG. 8
# Procedure: (§4) More specifically, male 6-week-old C57BL/6 mice were purchased from Orient Bio Inc., and acclimated for 1 week, and then anesthetized, and the pupils were dilated. Subsequently, an animal model was prepared by irradiating the space around the ophthalmic nerves in 12, 3, 6, and 9 o'clock directions with diode green laser (532 nm, 200 mW, 0.8 sec, 50 μm, and photocoagulator) to cause injury to 3 to 4 sites per eyeball.
# (§5) After injury was caused to mice with laser by the method in Example 1-9-1 and the mice were anesthetized one day later, 2 μL was administered into the vitreous body of both eyes once (intravitreal injection) using a 34 gauge needle. Subsequently, 14 days after the irradiation with laser, angiography and staining and imaging of CNV were performed.
# 14 days after the irradiation with laser, the mice experienced mydriasis and were systemically anesthetized by injecting 80 mg/kg of alfaxalone into the abdominal cavities of the mice, and then 1% fluorescein was intraperitoneally injected into the mice. And then, after the mice were photographed by using a Micron IV device, the CNV lesion area was measured by using Image-Pro Plus software.
# Accordingly, in the animal models prepared by the methods in Examples 1-9, the degree to which the contrast medium was leaked according to the administration of NMSSV was compared with that of the control.
# C57BL/6 mice [7] = test: Laser-induced CNV mouse model, isolectin B4 immunofluorescence staining; assay type: in vivo; details: intravitreal injection once, 2 weeks after laser, vs control, FIG. 9
# Procedure: as §4, §5
# 14 days after the irradiation with laser, eyeballs were extracted from the mice, and then fixed in 4% paraformaldehyde for 1 hour. […] Thereafter, after the complex tissue was washed with PBS, the tissue with a fluorescence mounting medium (Vector, USA) was fixed on a slide glass, and then covered with a cover slip, and the tissue was observed and photographed through a fluorescence microscope. The CNV lesion area was measured by using Image-Pro Plus software. […]
smiles,measurement,setting,value
"CC(C)CC1OC(=O)[C@H](Cc2ccccc2)NC(=O)[C@H](CC(C)C)NC(=O)[C@H](C(C)C)NC(=O)[C@H](CC(C)C)N(C)C1=O (single isomer, unassigned) [P2, neo-N-methylsansalvamide]",proliferation of HUVECs induced by VEGF,"[1]; VEGF 50 ng/ml, MTT, FIG. 1",dose-dependently inhibited
same,apoptosis (cytotoxicity) in HUVECs,"[1]; at 5 μg/ml of P2, MTT",significant apoptosis was not detected
same,phosphorylation of ERK1/2 induced by VEGF,ERK1/2,inhibited the phosphorylation
same,phosphorylation of AKT induced by VEGF,AKT,inhibited the phosphorylation
same,phosphorylation of eNOS induced by VEGF,eNOS,inhibited the phosphorylation
same,VEGF-induced colony tube formation in HUVECs,HUVECs [2],significantly inhibited
same,VEGF-induced migration of HUVECs,HUVECs [3],significantly decreased
same,invasion of HUVECs due to VEGF through Matrigel,HUVECs [4],blocked
same,formation of VEGF-induced blood vessels in a mouse aortic ring,mouse aortic ring,significantly inhibited
same,content of hemoglobin of Matrigel plug treated with VEGF,C57BL/6 mice [5]; Drabkin method,continuously inhibited the content of hemoglobin
same,formation of new blood vessels in Matrigel plug,"C57BL/6 mice [5]; compared to VEGF alone, subcutaneous plug",the formation of new blood vessels was decreased
same,CNV lesion area (angiography),C57BL/6 mice [6],the CNV lesion area is decreased
same,fluorescein leakage,C57BL/6 mice [6],the fluorescein leakage was decreased
same,CNV lesion area (isolectin B4 stained area),C57BL/6 mice [7],significantly decreased
